Measured values as given in patent publication US20050036962A1, “Compositions and method for protecting skin from UV induced immunosuppression and skin damage” (Novogen Research Pty. Ltd., priority 1997, published 2005).

Legend:
[1] = tested on: Hairless albino Sh:HR-1 mice; test: Contact hypersensitivity (CHS) reaction to oxazolone after UV irradiation, Example 2; assay type: in vivo, mouse; conditions: for % Suppression of CHS: UV-irradiated vs non-UV group, lotion 20 μM compound (glucan 10% w/w in lotion B; clover extract 0.5% w/w), topical after each daily UV; for prevention/amelioration of UV induced immunosuppression (in words): topical lotion after UV, CHS model
Text: O'Dell et al (1980 Arch. Dermatol, 116, 559-561) have shown that sun-exposed skin areas on humans are immunologically impaired according to non-exposed skin. A standard model for testing immunosuppression, that is a model with reference to human immunosuppression, is the hairless mouse. A standard test in the hairless mouse model is the contact hypersensitivity (CHS) reaction to an immune irritant such as oxazolone (Asherson and Ptak, Immunology, (1968) 15:405-416). The compound oxazolone induces a vigorous immune response in the hairless mouse which may be measured by ear swelling. Immune suppression by UV light or other agents can be readily tested in the model. See for example Kondo, S, McKenzie, R. C., Sauder, D. N., J. Invest. Dermatol., 103:811-814; Reeve et al, Cancer Letts., 108:271-279 (1996); and Reeve et al, J. Invest. Dermatol., 103:801-806 (1994). As will be shown in the non-limiting examples which follow, compositions comprising compounds of the Formula (I) were active in the treatment/prevention/amelioration of UV induced immunosuppression in the hairless mouse model, which as discussed above is directly referable to the situation in human skin, for example, Yoshikawa et al, J. Invest. Dermatol., 95:530-536, (1990).
The CHS reaction in mice is a standard model for immunosuppression and is a representative model for human immunosuppression (Yoshikawa et al, Invest. Dermatol., 95:530-536 (1990)).
(§1) The CHS reaction was carried out according to the protocol of Reeve et al, Immunology, 78:99-104 (1993). Hairless albino Sh:HR-1 mice were divided into two treatment groups. The first treatment group designated group 1 was not subject to UV irradiation, and received either 0.2 ml of test lotion “A” or test lotion ‘B’ painted on to the dorsal skin on four consecutive days (that is, 4 μmol/mouse, or approximately 0.1 μmol/cm^2). The second treatment group, group 2, were UV irradiated with a minimal erythemal dose of UV light which simulates the toxic effect of sunlight on the skin. After each daily UV treatment 0.2 ml of treatment solution was applied to the dorsal skin as for treatment group 1. Mid-dorsal skinfold thickness was measured every twenty four hours to indicate erythema oedema. CHS to oxazolone was induced on abdominal skin seven days after the first treatment followed by challenge on the ears on day 15, and average ear swelling was determined as a measure of immune response.
Genistein, daidzein, equol, tetrahydrodaidzein, ODMA, dehydroequol and clover extract were tested in this experiment in test lotion “A”. Equol, genistein and clover extract were also tested in tes lotion ‘B’. The results expressed below are given as a percentage of suppression of CHS measured with reference to the non-UV exposed treatment group 1, which is induced by UV exposure.

[2] = tested on: Hairless albino Sh:HR-1 mice; test: Mid-dorsal skinfold thickness (erythema/oedema) after UV irradiation, Example 2; assay type: in vivo, mouse; conditions: for erythema/oedema (in words): measured at day four and day seven; for negative average skin fold increase / average skin fold increase: seven days after treatment; for negative average skin fold increase: given as a negative increase, substantially no increase in skin fold thickness; for average skin fold increase: one unit = 0.001 in, test lotion A
Method: as §1
Erythema/oedema was measured at day four and day seven of the treatment groups. […] For example, at seven days after treatment for base lotion “A” average skin fold thickness was six units (that is 0.006 in), for the daidzein containing lotion average skin fold increase was seven units, and for tetrahydrodaidzein average skin fold thickness was five units. In contrast, for equol, genistein, dehydroequol and ODMA there was a negative average skin fold increase of approximately 0.2, which corresponds to substantially no increase in skin fold thickness.

[3] = tested on: Hairless albino Sh:HR-1 mice; test: CHS reaction to oxazolone after UVB irradiation, equol/glucan lotions, Example 4; assay type: in vivo, mouse; conditions: for % Suppression of CHS: 1 MED (UVB) for 3 days, equol 2.5 uM, glucan 20% in base lotion, ears measured day 15; for decreasing percentage suppression of hypersensitivity and skin fold thickness (in words): compared to the control groups
Method: The CHS reaction was carried out as in Example 2. Hairless albino Sh:HR-1 mice were divided into eight treatment groups as shown: • 1. base lotion+MED (UVB) for […] • 2. glucan (20%) in base lotion+1 MED (UVB) for 3 days • 3. Equol (2.5 uM) in base lotion+1 MED (UVB) for 3 days • 4. Equol (2.5 uM)+glucan (20%) in base lotion+1 MED (UVB) for 3 days • 5. base lotion and no irradiation for three days (Control) • 6. glucan (20%) in base lotion and no irradiation for three days (Control) • 7. Equol (2.5 uM) in base lotion and no irradiation for three days (Control) • 8. Equol (2.5 uM)+glucan (20%) in base lotion and no irradiation for three days (Control)
On days 7 and 8 the mice were sensitised with 2% oxazolone in alcohol (100 ul/mouse). On day 14, the ears were challenged with 2% oxazolone (20 ul/mouse). On day 15, the ears were measured for skin fold thickness and suppression of […] hypersensitivity.

Human subjects = test: Erythema intensity at UV-irradiated skin sites on the back, post-UV topical lotion, Example 3; assay type: in vivo; conditions: UV + lotion with 100 μM equol
Method: Tests were performed at the Australian Photobiology Testing Facility at the University of Sydney. Human subjects were tested in a controlled solarium. A grid was established using reference coordinate points on the back of each subject, thereby providing a series of treatment sites on the back of each patient where the erythema-reducing potential of compositions according to the invention could be tested.
Compounds of the Formula (I) were dissolved in DMSO and incorporated into base lotion “A” to contain 100 μM of active ingredient, and 0.5% DMSO.
Topical applications were made to the back of the patient within the treatment grid which was established to provide a series of sites for UV irradiation, and subsequent application of compositions. Topical application consisted of 2 mg/cm^2 lotion applied firmly, followed by a second 2 mg/cm^2 applied but not rubbed in. Each topical treatment was therefore 0.4 nmols/cm^2 compound in the Formula (I).
The treatment procedure was as follows. On the first day of treatment a minimum erythemal dose of UV (MED) was established for each subject, this being the minimum degree of UV light which on visual determination produces a reddening of the skin. […] The first treatment day was a Monday. Subsequent treatments were as follows:
Expose 3×3 skin sites to 0.75 MED UV.
Immediately, at four hours and at six hours post-UV, • 1 apply nil to three sites • 2 apply topical base lotion to three sites • 3 apply topical equol lotion to three sites according to technique above. Wednesday
Assess erythema (none visible as expected).
Re-expose same 3×3 skin sites to 0.75 MED UV.
Immediately, at four hours and at six hours post-UV, apply topical lotions as above.
Assess erythema visually by ranking the colour intensity of the 3×3 skin sites.
Re-expose same 3×3 skin sites to one MED UV.
Topical applications as before

Compound | % Suppression of CHS ([1]; 18 hours of ear challenge) | % Suppression of CHS ([1]; 21 hours of ear challenge) | prevention/amelioration of UV induced immunosuppression (in words) [1] | negative average skin fold increase [2] | other results
Oc1ccc([C@H]2COc3cc(O)ccc3C2)cc1 [Equol, equol] | 12% | 5% | significant activity | approximately 0.2 | erythema/oedema (in words) [2]: suppressed erythema/oedema; % Suppression of CHS [3]: 6%; decreasing percentage suppression of hypersensitivity and skin fold thickness (in words) [3]: effective; Average erythema intensity (n = 3) (Human subjects; 48 hours, 0.4 nmols/cm^2 per application): 0.21; Average erythema intensity (n = 3) (Human subjects; 52 hours): 0.21; Average erythema intensity (n = 3) (Human subjects; 55.5 hours): 0.67; Average erythema intensity (n = 3) (Human subjects; 71 hours): 0.67; Average erythema intensity (n = 3) (Human subjects; 75 hours): 0.38; Average erythema intensity (n = 3) (Human subjects; 77 hours): 0.54
O=c1c(-c2ccc(O)cc2)coc2cc(O)cc(O)c12 [Genistein, genistein] | 14% | 13% | significant activity | approximately 0.2 | erythema/oedema (in words) [2]: suppressed erythema/oedema
Oc1ccc(C2COc3cc(O)ccc3C2O)cc1 (stereo not drawn) [tetrahydrodaidzein] | 33% | 31% | did not ameliorate |  | average skin fold increase [2]: five
β-(1,3)(1,6)-glucan [Glucan only] |  |  |  |  | % Suppression of CHS [3]: 4.5%; decreasing percentage suppression of hypersensitivity and skin fold thickness (in words) [3]: effective
Oc1ccc(C2=Cc3ccc(O)cc3OC2)cc1 [dehydroequol] | 10% | 4% | significant activity | approximately 0.2 | 
O=c1c(-c2ccc(O)cc2)coc2cc(O)ccc12 [Daidzein, daidzein] | 27% | 37% | did not ameliorate |  | average skin fold increase [2]: seven
CC(C(=O)c1ccc(O)cc1O)c1ccc(O)cc1 (stereo not drawn) [ODMA, O-desmethyl-angolensin] |  |  |  | approximately 0.2 | 
